Data published in patent publication US5759768A, “Assays for factors affecting circularization of DNA, assays for factors affecting DNA integration, factors, and uses thereof” (priority 1995, dated 1998).

Assays:
[1] = tested on: purified linear viral DNA; assay: Circularization of purified linear viral DNA in cytoplasmic extracts of uninfected SupT1 cells; type: biochemical, HIV-1; conditions: 1 mM, 37° C., 45 min
Protocol: Further evidence of a role for host proteins in the formation of the 1-LTR and simple 2-LTR circular forms of viral DNA was obtained by testing the ability of uninfected cell extracts to mediate the circularization of purfied viral DNA. Linear viral DNA was prepared from cytoplasmic extracts of uninfected cells by SDS-proteinase K treatment and phenol extraction. The purfied DNA was added to cytoplasmic extracts prepared form uninfected SupT1 cells, in the presence or absence of added ATP.
Linear viral DNA was purified from cytoplasmic extracts of cells 4 hours post-infection as described above. In FIG. 22, a purified linear viral DNA was added to cytoplasmic extracts from uninfected SupT1 cells and incubated at 37° C. for 45 minutes. The uninfected SupT1 cells used for the preparation of extracts were either untreated (lanes 3-11) or cultured in the presence of 10 ng/ml phorbol 12-myristate 13-acetate for six hours prior to extraction (lane 2). […] Lanes 2-11: reaction products following incubation of purified linear viral DNA in uninfected extracts containing 1 mM ATP (lanes 2 and 3), nothing added (lane 4), 1 mM dATP (lane 5), 1 mM UTP (lane 6), 1 mM CTP (lane 7), 1 mM GTP (lane 8), 1 mM ATPγS (lane 9), or 1 mM ADP (lane 10). Lane 11: uninfected SupT1 cell extract was treated with proteinase K for 10 minutes at 37° C., then linear viral DNA was added and incubation continued for 45 minutes. In FIG. 23, lanes 1, 2, 4 and 5: purified linear viral DNA was incubated with T4 DNA ligase (lane 1), T4 polynucleotide kinase and T4 DNA ligase (lane 2), Klenow fragment of E. coli DNA polymerase I and T4 DNA ligase […], or Klenow fragment, T4 polynucleotide kinase, and T4 DNA ligase (lane 4). Lanes 3 and 6: in vitro circularization reaction products generated in cell extracts, included as size standards. Lane 3: cytoplasmic extracts from infected cells were incubated with […] for 45 minutes; lane 6: purified linear viral DNA was incubated with cytoplasmic extract from uninfected SupT1 cells in the presence of 1 mM ATP for 45 minutes. The possibility that a host DNA ligase was responsible for the formation of the simple 2-LTR circles was examined by testing the ability of phage T4 ligase to catalyze the circularization of linear viral DNA. […] Restriction endonuclease analysis of the reaction products formed in the presence of both Klenow fragment and T4 DNA ligase confirmed the formation of new 2-LTR junctions (not shown). […] This observation is consistent with previous reports that linear viral DNA prepared from cells infected with the murine leukemia virus [Fujiwara and Mizuuchi, Cell, 54:497-504 (1988) and HIV-1 [Pauza, Virology, 179:886-887 (1990)] consists of a mixture of molecules that are either blunt-ended or recessed by two nucleotides at each 3'-terminus. The removal of the two terminal nucleotides is mediated by the viral integrase as a necessary step in the process of integration [Roth et al., Cell 58: 47-54 (1989)]. […] This would explain the requirement of DNA polymerase for the subsequent joining of the ends of viral DNA by DNA ligase.

viral DNA = assay: PCR analysis of circular viral DNA formed in vitro; type: biochemical, HIV-1
Protocol: The following oligonucleotides were used for PCR: PBS, 5'-GTCGCCGCCCCTCGCCTC-3'(SEQ ID No. 1); tat, 5'-[…]-3'(SEQ ID No. 2); nef, 5'-[…]-3'(SEQ ID No. 3); R1, 5'-[…]-3'(SEQ ID No. 4); R2, 5'-[…]-3'(SEQ ID No. […]). One hundred microliter reactions contained 10 mM Tris hydrochloride (pH 8.3), 50 mM KCl, 1.5 mM MgCl2, 0.001% (w/v) gelatin, 200 μM each dATP, dCTP, dGTP, and dTTP, 1 μM each of the indicated primer, and 2.5 units of AmpliTaq recombinant Taq DNA polymerase (Perkin Elmer Cetus Co., Norwalk, Conn.). For amplification of viral DNA from cytoplasmic extracts, each reaction contained approximately 1/30 the amount of DNA from a 3 ml extract. For amplification of viral DNA from Hirt extractions, each reaction contained DNA from the equivalent of 2×10^6 cells. An initial denaturation step at 98° C. was performed for 10 minutes. Thirty cycles of the PCR reaction were then performed with an annealing temperature of 60° C. for 1 minute, an extension temperature of 72° C. for 5 minutes, and a denaturation temperature of 95° C. for 1 minute. Reaction products were visualized following electrophoresis on 1% agarose gel containing ethidium bromide. […]
Additional rounds of PCR amplification were necessary to detect the presence of a DNA fragment corresponding to the 2-LTR junction fragment when viral DNA from Hirt supernatants of infected cells were used, presumably due to the lower concentration of 2-LTR circles as compared to 1-LTR circles in these preparations (data not shown). Similarly, 2-LTR junction fragments were not readily detected among the amplification products of circular viral DNA formed in vitro, most likely due to the low concentration of simple 2-LTR circles and competition by the other forms of circular viral DNA (1-LTR circles and 2-LTR circles formed by autointergration) present at much higher concentrations. […]

| SMILES | 1-LTR circles from purified linear viral DNA [1] | 2-LTR circles from purified linear viral DNA [1] | circularization of purified linear viral DNA [1] | PCR amplification product (2-LTR junction, R region primers) (viral DNA; SalI digested circular DNA formed with added ATP) | PCR amplification products (PBS and tat primers, autointegration) (viral DNA; extracts incubated with 1 mM ATP) | PCR amplification product (1-LTR circle junction) (viral DNA; extracts treated with 1 mM ATP, PBS and nef primers) | ability to substitute for ATP in formation of simple 2-LTR circles [1] |
| --- | --- | --- | --- | --- | --- | --- | --- |
| Nc1ncnc2c1ncn2[C@@H]1O[C@H](COP(=O)(O)OP(=O)(O)OP(=O)(O)O)[C@@H](O)[C@H]1O [ATP, adenosine triphosphate] | The most abundant of the new DNA forms comigrated with the 1-LTR circular DNA molecules | a small amount of product migrating as 2-LTR circles could also be detected | New, slowly migrating DNA species were detected | A DNA fragment of the same size was detected | a mixture of DNA fragments of heterogeneous lengths | a DNA fragment having the size expected for a 1-LTR circle junction was generated |  |
| Nc1ncnc2c1ncn2[C@@H]1O[C@H](COP(=O)(O)OP(=O)(O)OP(O)(O)=S)[C@@H](O)[C@H]1O [ATPγS] |  |  | failed to induce the circularization of purified linear viral DNA |  |  |  | None of the other nucleoside triphosphates tested, nor ATPγS, was able to substitute for ATP |
